For 12 compounds, TGI results are on record in PubChem BioAssay (NCI).

Among the test systems are 786-0 renal; MALME-3M melanoma; NCI-H226 lung; RPMI-8226 leukemia; RXF 393 renal; SK-MEL-28 melanoma; SK-OV-3 ovarian; SW-620 colon; U251 CNS; UACC-257 melanoma; UACC-62 melanoma; UO-31 renal.
Common to all, as to experiment: NCI tumour cell line growth inhibition, 48 h

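Growth conditions: 96-well plates. Treatment: test compound, 48 hours, 5 concentrations. Analysis: linear interpolation between bracketing concentrations; unreached endpoints set to highest concentration. TGI: concentration producing complete growth inhibition.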

Consider `O=C(NNc1nc(-c2ccccc2)cs1)Nc1ccccc1`, for which the TGI in the assay with 786-0 renal is 85 µM; in the assay with MALME-3M melanoma, over 100 µM; in the assay with NCI-H226 lung it was 46.5 µM; in the assay with RPMI-8226 leukemia it was 44.2 µM; in the assay on RXF 393 renal, 36.8 µM; in the assay on SK-MEL-28 melanoma, 85.6 µM. The TGI was 52.2 µM in the assay with SK-OV-3 ovarian; over 100 µM in the assay with SW-620 colon; 58.1 µM in the assay on U251 CNS; 59.3 µM in the assay on UACC-257 melanoma; 40.2 µM in the assay with UACC-62 melanoma; 75.2 µM in the assay with UO-31 renal.

On to `COC(=O)C(CNC(=O)/C=C/c1ccc(OC(C)=O)c(OC(C)=O)c1)NC(=O)/C=C/c1ccc(OC(C)=O)c(OC(C)=O)c1` (stereo not drawn), for which the TGI in the assay with 786-0 renal, in the assay on MALME-3M melanoma, with NCI-H226 lung, with RPMI-8226 leukemia, in the assay with RXF 393 renal and with SK-MEL-28 melanoma was over 100 µM in each case. The TGI in the assay on SK-OV-3 ovarian, in the assay on SW-620 colon, with U251 CNS, in the assay on UACC-257 melanoma, with UACC-62 melanoma and in the assay on UO-31 renal was over 100 µM in each case.

Take `Nc1ccn(CC(O)c2cc3ccccc3[nH]2)c(=O)n1` (stereo not drawn): the TGI in the assay on 786-0 renal, in the assay with MALME-3M melanoma, in the assay with NCI-H226 lung, in the assay on RPMI-8226 leukemia, in the assay with RXF 393 renal and in the assay with SK-MEL-28 melanoma was over 100 µM each time. Further, the TGI with SK-OV-3 ovarian, in the assay on SW-620 colon, in the assay on U251 CNS, in the assay with UACC-257 melanoma, in the assay with UACC-62 melanoma and with UO-31 renal was over 100 µM throughout.

Take `CC(C)(CO)CNc1cc(Cl)nc(N)n1`: the TGI in the assay on 786-0 renal, in the assay on MALME-3M melanoma, with NCI-H226 lung, in the assay with RPMI-8226 leukemia, in the assay with RXF 393 renal and in the assay with SK-MEL-28 melanoma was over 100 µM in each case. Also, the TGI in the assay on SW-620 colon, in the assay with U251 CNS, in the assay with UACC-257 melanoma, in the assay on UACC-62 melanoma and in the assay on UO-31 renal was over 100 µM each time.

`O=C1/C(=C/c2ccc(O)cc2)Oc2ccccc21`: the TGI in the assay on 786-0 renal, in the assay with MALME-3M melanoma, in the assay with NCI-H226 lung, in the assay with RPMI-8226 leukemia, in the assay on RXF 393 renal and with SK-MEL-28 melanoma was over 100 µM each time. In addition, the TGI with SK-OV-3 ovarian, with SW-620 colon, in the assay on U251 CNS, in the assay with UACC-257 melanoma and in the assay on UACC-62 melanoma was over 100 µM in each case.

`CC(C)OP(=O)(OC(C)C)/C(C#N)=C/c1c[nH]c2ccccc12`: the TGI with 786-0 renal, in the assay on MALME-3M melanoma, with NCI-H226 lung, in the assay on RPMI-8226 leukemia, in the assay with RXF 393 renal and in the assay with SK-MEL-28 melanoma was over 100 µM in each case. Further, the TGI in the assay on SK-OV-3 ovarian, with SW-620 colon, in the assay on U251 CNS, in the assay with UACC-257 melanoma and in the assay on UACC-62 melanoma was over 100 µM throughout.

Regarding `Cc1ccc(C)c2c1n1c(=O)n(C)c(=O)n21`, the TGI with 786-0 renal, in the assay with MALME-3M melanoma, in the assay with NCI-H226 lung, in the assay with RPMI-8226 leukemia, with RXF 393 renal and in the assay on SK-MEL-28 melanoma was over 100 µM in each case. For the same compound, the TGI with SK-OV-3 ovarian, in the assay with SW-620 colon, in the assay on U251 CNS, with UACC-257 melanoma, with UACC-62 melanoma and with UO-31 renal was over 100 µM each time.

As to `CNC(=O)C1OC(n2cnc3c(NCc4cccc(I)c4)nc(Cl)nc32)C(O)C1O` (stereo not drawn), the TGI in the assay on 786-0 renal was 46.8 µM; with MALME-3M melanoma it was 19.6 µM; with NCI-H226 lung, 23 µM; in the assay with RPMI-8226 leukemia it was over 100 µM; with RXF 393 renal, 29.6 µM; in the assay on SK-OV-3 ovarian it was 35 µM. Moreover, the TGI in the assay on SW-620 colon worked out at 51.6 µM; in the assay on U251 CNS, 40.4 µM; in the assay on UACC-257 melanoma it was 23.8 µM; in the assay with UACC-62 melanoma it was 24 µM; in the assay with UO-31 renal, 24.6 µM.

For `Cc1oc2nc(N(C)C)n3cnnc3c2c1C`, the TGI in the assay with 786-0 renal, in the assay with NCI-H226 lung, in the assay with RPMI-8226 leukemia, in the assay on RXF 393 renal, in the assay on SK-MEL-28 melanoma and in the assay on SK-OV-3 ovarian was over 100 µM each time. Also, the TGI with SW-620 colon, in the assay on U251 CNS, with UACC-257 melanoma, in the assay on UACC-62 melanoma and with UO-31 renal was over 100 µM in each case.

`N#Cc1c(N2CCCC2)nsc1Nc1ccccc1`: the TGI in the assay on 786-0 renal, with MALME-3M melanoma, in the assay with NCI-H226 lung, in the assay on RPMI-8226 leukemia, with RXF 393 renal and with SK-MEL-28 melanoma was over 100 µM throughout. Besides, the TGI in the assay with SW-620 colon, in the assay with UACC-257 melanoma and in the assay with UO-31 renal was over 100 µM each time.

For `Cc1cc(OCC(O)CO)ccc1Cl` (stereo not drawn), the TGI in the assay with MALME-3M melanoma, in the assay on NCI-H226 lung, with RPMI-8226 leukemia, in the assay on RXF 393 renal, with SK-MEL-28 melanoma and in the assay on SK-OV-3 ovarian was over 100 µM throughout. Also, the TGI in the assay on SW-620 colon, in the assay on U251 CNS, in the assay on UACC-257 melanoma, with UACC-62 melanoma and in the assay on UO-31 renal was over 100 µM throughout.

`Cc1ccc2c(=O)cc(-c3cccc(F)c3)[nH]c2n1`: the TGI is over 100 µM in the assay on 786-0 renal; over 100 µM in the assay on MALME-3M melanoma; 0.475 µM with NCI-H226 lung; over 19.8 µM with RPMI-8226 leukemia; over 100 µM with RXF 393 renal; over 100 µM with SK-MEL-28 melanoma. Further, the TGI in the assay with SW-620 colon was over 100 µM; in the assay on U251 CNS, over 74.7 µM; in the assay with UACC-257 melanoma, over 100 µM; in the assay on UACC-62 melanoma it was over 100 µM.
